Laboratory results taken from the supplement of paper PMC12463676, “Small-molecule dissolution of stress granules by redox modulation benefits ALS models” (Nature Chemical Biology, 2025).

Tests used:
lipoamide = compound: NC(=O)CCCCC1CCSS1 [lipoamide]; experiment: thermal stability z-score vs DMSO; higher = more thermally stabilized by treatment; settings: HeLa, lipoamide concentration 100 µM
Protocol: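 Cellular thermal proteome profiling in HeLa cells. Cells were treated with 100 µM lipoamide for 1 h, with or without 1 mM arsenate for a further 1 h, then heated to ten temperatures (37-66.3 °C), and soluble protein was quantified by TMT mass spectrometry relative to 0.1% DMSO controls. The thermal stability score (sum of log2 fold changes minus the abundance score) was transformed to a z-score; mean of n = 3 experiments.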

potassium arsenate = compound: O=[As]([O-])(O)O.[K+] [potassium arsenate]; experiment: as above; settings: HeLa; arsenate concentration 1 mM
Protocol: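 Cellular thermal proteome profiling in HeLa cells treated with 1 mM arsenate for 1 h (DMSO pretreatment), heated to ten temperatures (37-66.3 °C). Soluble protein was quantified by TMT mass spectrometry relative to DMSO controls; the thermal stability score was transformed to a z-score; mean of n = 3 experiments.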

[1] = arsenate co-treatment: 1 mM arsenate 1 h
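Further: each temperature applied for 3 min, abundance score taken as mean log2 fold change at the two lowest temperatures, z-score obtained by mean subtraction and division by SD.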

Sequence of UniProt Q9BU23 (Q9BU23 whole entry): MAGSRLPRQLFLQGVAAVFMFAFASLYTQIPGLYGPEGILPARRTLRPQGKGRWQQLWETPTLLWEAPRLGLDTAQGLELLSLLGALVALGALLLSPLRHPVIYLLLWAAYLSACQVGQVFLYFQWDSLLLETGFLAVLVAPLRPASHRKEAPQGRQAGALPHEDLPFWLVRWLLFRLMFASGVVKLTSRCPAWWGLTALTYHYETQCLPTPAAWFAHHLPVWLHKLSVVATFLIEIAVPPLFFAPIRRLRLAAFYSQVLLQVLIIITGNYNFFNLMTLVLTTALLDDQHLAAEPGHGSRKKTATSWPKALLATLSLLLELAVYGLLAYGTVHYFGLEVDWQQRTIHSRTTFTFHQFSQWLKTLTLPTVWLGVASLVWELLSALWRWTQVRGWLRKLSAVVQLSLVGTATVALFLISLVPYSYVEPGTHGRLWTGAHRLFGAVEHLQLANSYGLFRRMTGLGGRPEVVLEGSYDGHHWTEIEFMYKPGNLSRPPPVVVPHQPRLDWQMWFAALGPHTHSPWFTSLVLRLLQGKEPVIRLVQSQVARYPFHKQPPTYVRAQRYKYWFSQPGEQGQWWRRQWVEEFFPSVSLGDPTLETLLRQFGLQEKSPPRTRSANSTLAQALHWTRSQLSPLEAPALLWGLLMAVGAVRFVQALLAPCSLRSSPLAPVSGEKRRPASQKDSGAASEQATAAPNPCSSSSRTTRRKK
Sequence of UniProt P42702 (P42702 whole entry): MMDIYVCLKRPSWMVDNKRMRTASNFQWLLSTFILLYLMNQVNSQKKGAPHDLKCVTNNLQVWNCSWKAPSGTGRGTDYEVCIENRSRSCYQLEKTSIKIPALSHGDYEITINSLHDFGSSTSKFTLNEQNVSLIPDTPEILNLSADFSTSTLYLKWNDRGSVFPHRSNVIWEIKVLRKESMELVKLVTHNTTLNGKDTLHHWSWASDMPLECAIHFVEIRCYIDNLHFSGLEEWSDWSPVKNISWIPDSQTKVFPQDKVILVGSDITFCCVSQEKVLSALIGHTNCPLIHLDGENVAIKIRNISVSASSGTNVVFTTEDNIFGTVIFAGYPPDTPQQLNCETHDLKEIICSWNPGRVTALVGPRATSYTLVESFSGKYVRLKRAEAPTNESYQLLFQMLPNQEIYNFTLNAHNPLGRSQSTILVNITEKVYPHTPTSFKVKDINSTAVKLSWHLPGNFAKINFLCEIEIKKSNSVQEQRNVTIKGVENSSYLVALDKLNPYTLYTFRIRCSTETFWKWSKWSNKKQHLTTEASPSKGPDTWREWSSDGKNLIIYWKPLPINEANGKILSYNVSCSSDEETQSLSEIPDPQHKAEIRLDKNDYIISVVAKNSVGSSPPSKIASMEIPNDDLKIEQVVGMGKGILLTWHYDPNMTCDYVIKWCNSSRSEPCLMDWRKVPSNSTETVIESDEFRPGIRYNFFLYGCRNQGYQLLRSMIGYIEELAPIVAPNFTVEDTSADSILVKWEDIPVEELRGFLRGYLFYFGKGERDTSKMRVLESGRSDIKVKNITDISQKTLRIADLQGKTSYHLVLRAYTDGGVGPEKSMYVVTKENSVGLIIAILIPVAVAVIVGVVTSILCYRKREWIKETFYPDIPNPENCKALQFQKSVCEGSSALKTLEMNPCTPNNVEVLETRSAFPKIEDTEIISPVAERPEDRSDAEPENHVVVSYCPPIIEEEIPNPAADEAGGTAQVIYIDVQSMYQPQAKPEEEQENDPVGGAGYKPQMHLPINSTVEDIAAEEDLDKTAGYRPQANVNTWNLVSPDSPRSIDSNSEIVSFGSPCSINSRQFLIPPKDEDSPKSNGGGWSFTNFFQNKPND
Sequence of UniProt O95202 (O95202 whole entry): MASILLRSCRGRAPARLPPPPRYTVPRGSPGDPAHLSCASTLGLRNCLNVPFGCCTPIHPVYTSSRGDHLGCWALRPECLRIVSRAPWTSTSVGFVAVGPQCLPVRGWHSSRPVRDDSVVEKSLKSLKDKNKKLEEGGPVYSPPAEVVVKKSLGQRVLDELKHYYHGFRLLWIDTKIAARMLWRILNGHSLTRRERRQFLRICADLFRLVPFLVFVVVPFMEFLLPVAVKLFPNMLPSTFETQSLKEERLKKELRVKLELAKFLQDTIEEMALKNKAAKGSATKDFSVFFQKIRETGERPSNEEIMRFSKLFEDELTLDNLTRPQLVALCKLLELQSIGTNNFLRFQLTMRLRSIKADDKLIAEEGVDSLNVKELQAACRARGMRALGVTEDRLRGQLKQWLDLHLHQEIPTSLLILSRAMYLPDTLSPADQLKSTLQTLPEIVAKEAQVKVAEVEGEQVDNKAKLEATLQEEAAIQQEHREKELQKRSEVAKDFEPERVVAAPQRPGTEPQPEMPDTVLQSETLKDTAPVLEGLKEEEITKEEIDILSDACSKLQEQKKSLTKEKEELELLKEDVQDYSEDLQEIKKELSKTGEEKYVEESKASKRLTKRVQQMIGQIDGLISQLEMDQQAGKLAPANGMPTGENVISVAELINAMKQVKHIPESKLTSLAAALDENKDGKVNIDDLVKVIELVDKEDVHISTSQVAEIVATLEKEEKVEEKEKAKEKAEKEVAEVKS
Sequence of UniProt P09382 (P09382 whole entry): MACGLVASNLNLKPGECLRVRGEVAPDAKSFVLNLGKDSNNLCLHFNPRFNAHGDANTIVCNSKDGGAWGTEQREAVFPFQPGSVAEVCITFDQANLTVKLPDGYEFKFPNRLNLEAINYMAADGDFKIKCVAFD
Sequence of UniProt P02545 (P02545 whole entry): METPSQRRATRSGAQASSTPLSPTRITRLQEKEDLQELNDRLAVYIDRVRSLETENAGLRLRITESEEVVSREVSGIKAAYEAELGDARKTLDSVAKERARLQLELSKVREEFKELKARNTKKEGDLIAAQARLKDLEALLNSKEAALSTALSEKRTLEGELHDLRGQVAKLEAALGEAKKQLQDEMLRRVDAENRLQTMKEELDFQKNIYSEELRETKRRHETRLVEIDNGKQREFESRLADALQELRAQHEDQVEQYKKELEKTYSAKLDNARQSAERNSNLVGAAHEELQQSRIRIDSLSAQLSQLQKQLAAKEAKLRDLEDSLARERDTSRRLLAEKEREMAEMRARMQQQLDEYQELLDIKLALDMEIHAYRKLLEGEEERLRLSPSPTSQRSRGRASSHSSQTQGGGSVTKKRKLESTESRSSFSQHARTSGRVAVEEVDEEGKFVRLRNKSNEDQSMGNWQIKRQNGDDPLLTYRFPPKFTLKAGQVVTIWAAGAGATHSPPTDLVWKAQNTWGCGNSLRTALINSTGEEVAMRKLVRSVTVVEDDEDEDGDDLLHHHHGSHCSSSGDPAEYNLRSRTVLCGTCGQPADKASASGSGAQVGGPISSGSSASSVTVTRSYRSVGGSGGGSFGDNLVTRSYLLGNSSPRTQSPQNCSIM
Sequence of UniProt P48059 (P48059 whole entry): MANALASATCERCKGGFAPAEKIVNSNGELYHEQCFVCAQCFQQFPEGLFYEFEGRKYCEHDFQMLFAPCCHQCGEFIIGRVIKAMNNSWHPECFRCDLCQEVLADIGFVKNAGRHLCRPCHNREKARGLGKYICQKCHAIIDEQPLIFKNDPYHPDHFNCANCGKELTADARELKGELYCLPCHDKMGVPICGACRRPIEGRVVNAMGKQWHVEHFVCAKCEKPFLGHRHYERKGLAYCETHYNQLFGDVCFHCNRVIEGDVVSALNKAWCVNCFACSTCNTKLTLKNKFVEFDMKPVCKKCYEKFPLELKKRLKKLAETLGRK
Sequence of UniProt Q8IVB5 (Q8IVB5 whole entry): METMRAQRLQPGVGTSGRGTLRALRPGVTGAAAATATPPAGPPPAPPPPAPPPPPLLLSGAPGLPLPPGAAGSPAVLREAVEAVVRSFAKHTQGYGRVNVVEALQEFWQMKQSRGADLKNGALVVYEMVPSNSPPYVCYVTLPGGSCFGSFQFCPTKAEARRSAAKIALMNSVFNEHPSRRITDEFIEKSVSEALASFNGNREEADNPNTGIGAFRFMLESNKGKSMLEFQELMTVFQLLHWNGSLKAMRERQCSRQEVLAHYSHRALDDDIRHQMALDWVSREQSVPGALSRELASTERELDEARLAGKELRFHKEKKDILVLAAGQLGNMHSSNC
Sequence of UniProt Q6P1A2 (Q6P1A2 whole entry): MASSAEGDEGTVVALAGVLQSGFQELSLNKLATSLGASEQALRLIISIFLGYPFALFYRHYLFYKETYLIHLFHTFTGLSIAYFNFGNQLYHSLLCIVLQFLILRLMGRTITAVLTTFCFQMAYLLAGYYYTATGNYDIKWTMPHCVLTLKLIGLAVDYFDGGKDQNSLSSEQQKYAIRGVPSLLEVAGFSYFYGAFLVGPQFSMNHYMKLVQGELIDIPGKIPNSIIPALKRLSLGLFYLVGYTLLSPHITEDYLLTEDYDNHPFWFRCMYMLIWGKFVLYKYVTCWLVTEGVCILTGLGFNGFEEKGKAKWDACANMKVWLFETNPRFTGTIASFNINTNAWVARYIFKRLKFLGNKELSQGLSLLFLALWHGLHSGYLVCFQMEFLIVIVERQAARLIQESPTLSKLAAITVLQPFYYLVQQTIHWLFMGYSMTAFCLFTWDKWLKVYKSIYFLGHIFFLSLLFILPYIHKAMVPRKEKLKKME
Sequence of UniProt Q96B70 (Q96B70 whole entry): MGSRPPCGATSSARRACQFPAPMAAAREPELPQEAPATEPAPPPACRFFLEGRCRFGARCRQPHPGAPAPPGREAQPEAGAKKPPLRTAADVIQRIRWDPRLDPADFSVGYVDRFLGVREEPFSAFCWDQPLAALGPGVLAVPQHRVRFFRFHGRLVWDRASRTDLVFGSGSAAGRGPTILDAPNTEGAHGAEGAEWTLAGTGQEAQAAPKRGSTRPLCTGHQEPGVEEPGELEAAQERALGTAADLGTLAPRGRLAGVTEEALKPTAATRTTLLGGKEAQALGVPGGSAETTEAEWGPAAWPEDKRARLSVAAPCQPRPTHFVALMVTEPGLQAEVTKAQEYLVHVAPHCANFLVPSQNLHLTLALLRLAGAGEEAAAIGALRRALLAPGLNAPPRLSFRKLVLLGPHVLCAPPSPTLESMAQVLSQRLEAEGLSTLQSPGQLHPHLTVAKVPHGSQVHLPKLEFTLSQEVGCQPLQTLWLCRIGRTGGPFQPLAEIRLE

Target	thermal stability z-score (lipoamide; [1])	thermal stability z-score (lipoamide; arsenate co-treatment: none)	thermal stability z-score (potassium arsenate)
LEMD2 (UniProt Q8NC56)	-1.14	-1.41	-0.503
LEMD3 (UniProt Q9Y2U8)	0.161	0.209	-0.685
LENG1 (UniProt Q96BZ8)	0.493	0.509	0.544
LENG9 (UniProt Q96B70)	-0.216	-0.193	-0.307
LEO1 (UniProt Q8WVC0)	1.13	0.765	0.239
LETM1 (UniProt O95202)	0.0577	0.374	0.0137
LETMD1 (UniProt Q6P1Q0)	0.197	-0.0626	0.0642
LGALS1 (UniProt P09382)	0.596	0.255	-0.756
LGALS3 (UniProt P17931)	0.762	0.918	-0.377
LGALS3BP (UniProt Q08380)	-2.58	-2.13	0.946
LGALSL (UniProt Q3ZCW2)	0.209	0.257	0.19
LGMN (UniProt Q99538)	-0.232	-0.461	-0.193
LHPP (UniProt Q9H008)	1.03	0.991	0.146
LIAS (UniProt O43766)	1.93	3.09	-2.31
LIFR (UniProt P42702)	-1.35	-0.675	-0.287
LIG1 (UniProt P18858)	-0.166	0.00122	0.24
LIG3 (UniProt P49916)	-0.0256	0.0387	-1.05
LIG4 (UniProt P49917)	-0.146	0.0757	-0.107
LIMA1 (UniProt Q9UHB6)	-0.552	-0.44	-1
LIMCH1 (UniProt Q9UPQ0)	0.0623	0.151	0.542
LIMD1 (UniProt Q9UGP4)	-1.08	-0.705	-5.26
LIMS1 (UniProt P48059)	-0.604	-0.589	-2.08
LIN7C (UniProt Q9NUP9)	0.138	0.419	0.379
LIN9 (UniProt Q5TKA1)	-0.0678	-0.263	-0.121
LIN54 (UniProt Q6MZP7)	0.0767	-0.0219	0.0147
LIPA (UniProt P38571)	-0.674	-0.352	0.119
LIX1L (UniProt Q8IVB5)	-0.241	-0.219	-0.301
LLGL1 (UniProt Q15334)	-0.455	-0.324	-0.755

Target	thermal stability z-score (lipoamide; [1])	thermal stability z-score (lipoamide; arsenate co-treatment: none)	thermal stability z-score (potassium arsenate)
LLGL2 (UniProt Q6P1M3)	-0.179	-0.122	-0.318
LLPH (UniProt Q9BRT6)	-1.21	-1.15	-2.48
LMAN1 (UniProt P49257)	-3.38	-2.78	0.757
LMAN2 (UniProt Q12907)	-1.93	-1.77	0.284
LMAN2L (UniProt Q9H0V9)	-2.57	-1.5	0.373
LMBRD1 (UniProt Q9NUN5)	-0.626	-0.635	0.252
LMBRD2 (UniProt Q68DH5)	-0.904	-0.0118	-0.111
LMF2 (UniProt Q9BU23)	-0.972	-0.61	0.316
LMNA (UniProt P02545)	0.567	0.493	-0.488
LMNB1 (UniProt P20700)	2.11	-0.38	0.742
LMNB2 (UniProt Q03252)	0.686	0.0237	0.839
LMO4 (UniProt P61968)	0.548	0.0182	0.164
LMO7 (UniProt Q8WWI1)	1.17	0.27	-1.54
LMTK2 (UniProt Q8IWU2)	-0.465	-0.397	1.04
LNP (UniProt Q9C0E8)	-1.09	-0.771	-0.997
LNPEP (UniProt Q9UIQ6)	0.328	0.227	0.249
LOC102723897|WASH3P|WASH2P	0.179	-0.15	0.051
LONP1 (UniProt P36776)	-0.482	-0.277	-0.763
LONP2 (UniProt Q86WA8)	-0.55	-0.13	0.393
LOXL2 (UniProt Q9Y4K0)	-1.8	-1.35	-0.197
LPCAT1 (UniProt Q8NF37)	-0.369	-0.129	0.149
LPCAT2 (UniProt Q7L5N7)	-0.337	0.245	0.944
LPCAT3 (UniProt Q6P1A2)	0.125	0.0829	0.724
LPCAT4 (UniProt Q643R3)	-0.953	0.367	0.519
LPGAT1 (UniProt Q92604)	-0.218	0.0487	0.251
LPIN1 (UniProt Q14693)	-0.429	-0.906	-1.07
LPIN2 (UniProt Q92539)	0.528	0.214	0.00612
